Test results: ChEMBL document CHEMBL4145528, “Novel dissymmetric 3,5-bis(arylidene)-4-piperidones as potential antitumor agents with biological evaluation in vitro and in vivo” (Eur J Med Chem, 2018)
Active and inactive are the calls of the source. No cut-off for these calls is given here.

Assays:
HeLa = experiment: Cytotoxicity against human HeLa cells assessed as reduction in cell viability after 24 hrs by MTT assay; type: functional, cell-based
HepG2 [1] = experiment: Cytotoxicity against human HepG2 cells assessed as reduction in cell viability after 24 hrs by MTT assay; type: functional, cell-based; conditions: for IC50: HepG2, 24 h
THP-1 = experiment: Cytotoxicity against human THP1 cells assessed as reduction in cell viability after 24 hrs by MTT assay; type: functional, cell-based; conditions: for IC50: THP-1, 24 h
K562 = experiment: Cytotoxicity against human K562 cells assessed as reduction in cell viability after 24 hrs by MTT assay; type: functional, cell-based; conditions: for IC50: K562, 24 h
L02 = experiment: Cytotoxicity against human LO2 cells assessed as reduction in cell viability after 24 hrs by MTT assay; type: cell-based; conditions: L02, 24 h
HepG2 [2] = experiment: Downregulation of Bcl2 protein expression in human HepG2 cells at 50 uM after 3 hrs by western blot analysis; type: functional, cell-based
HepG2 [3] = experiment: Upregulation of Bax protein expression in human HepG2 cells at 50 uM after 3 hrs by western blot analysis; type: functional, cell-based

Compound | IC50 (HeLa) [µM] | IC50 (HepG2 [1]) [µM] | IC50 (THP-1) [µM] | IC50 (K562) [µM] | IC50 (L02) [µM] | Activity (HeLa) | Activity (HepG2 [1]) | Activity (THP-1) | Activity (HepG2 [2]) | Activity (K562) | Activity (HepG2 [3])
CN1C/C(=C\c2cccc([N+](=O)[O-])c2)C(=O)/C(=C/c2ccc(Cl)cc2Cl)C1 | 8.9 | 4.8 | 3.56 | 12.4 | 14 |  |  |  |  |  | 
CN1C/C(=C\c2cccc([N+](=O)[O-])c2)C(=O)/C(=C/c2ccc(Cl)c(Cl)c2)C1 | 9.12 | 5.96 | 5.02 | 15.5 | 14.8 |  |  |  |  |  | 
COc1cc(/C=C2\CN(C)C/C(=C\c3ccc(Cl)cc3Cl)C2=O)cc(OC)c1OC | > 20 | 8.8 | 5.02 | > 20 | 13.4 |  |  |  |  |  | 
COc1cc(/C=C2\CN(C)C/C(=C\c3cccc([N+](=O)[O-])c3)C2=O)cc(OC)c1OC | 5.54 | 1.89 | 0.89 | 4.2 | 13.6 |  |  |  |  |  | 
CN1C/C(=C\c2ccc(C#N)cc2)C(=O)/C(=C/c2ccc(C(F)(F)F)cc2)C1 | 3.21 | 0.98 | 1.43 | 4.01 | 17.2 |  |  |  |  |  | 
CN1C/C(=C\c2cccc(Br)c2)C(=O)/C(=C/c2cccc([N+](=O)[O-])c2)C1 | 11.1 | 4.89 | 4.03 | 12.2 | 8.07 |  |  |  |  |  | 
COc1cc(/C=C2\CN(C)C/C(=C\c3ccc(F)cc3)C2=O)cc(OC)c1 | 10.2 | 6.14 | 5.04 | 11.2 | 21.9 |  |  |  |  |  | 
CN1C/C(=C\c2ccc(C(F)(F)F)cc2)C(=O)/C(=C/c2cccc([N+](=O)[O-])c2)C1 | 3.56 | 1.04 | 0.97 | 4.78 | 12.4 | Dose-dependent effect | Dose-dependent effect | Dose-dependent effect | Active | Dose-dependent effect | Active
COc1cc(/C=C2\CN(C)C/C(=C\c3ccc(Cl)c(Cl)c3)C2=O)cc(OC)c1 | 6.9 | 3.84 | 3.26 | 9.49 | 10.6 |  |  |  |  |  | 
COc1ccc(/C=C2\CN(C)C/C(=C\c3ccccc3F)C2=O)cc1OC | 14.3 | 8.76 | 11.2 | 18 | 10.5 |  |  |  |  |  | 
CN1C/C(=C\c2ccc(C(F)(F)F)cc2)C(=O)/C(=C/c2ccccc2F)C1 | 6.56 | 4.14 | 5.93 | 6.34 | 18.6 |  |  |  |  |  | 
COc1cc(/C=C2\CN(C)C/C(=C\c3ccc(Cl)cc3)C2=O)cc(OC)c1 | 11.2 | 5.95 | 5.86 | 13.3 | 18.9 |  |  |  |  |  | 
CN1C/C(=C\c2ccc(C(C)(C)C)cc2)C(=O)/C(=C/c2ccccc2F)C1 | 15.5 | 9.12 | 13.4 | 18.2 | 25.8 |  |  |  |  |  | 
COc1cc(/C=C2\CN(C)C/C(=C\c3ccc(Br)cc3)C2=O)cc(OC)c1OC | 11.9 | 6.8 | 5.33 | 12.4 | 15.4 |  |  |  |  |  | 
CN1C/C(=C\c2ccc(C#N)cc2)C(=O)/C(=C/c2ccc(Cl)cc2Cl)C1 | 7.76 | 6.25 | 1.91 | 11.9 | 10.8 |  |  |  |  |  | 
CN1C/C(=C\c2ccc(F)cc2)C(=O)/C(=C/c2cccc([N+](=O)[O-])c2)C1 | 6.25 | 9.34 | 7.16 | 11.2 | 17.6 |  |  |  |  |  | 
COc1cc(/C=C2\CN(C)C/C(=C\c3cc(OC)c(OC)c(OC)c3)C2=O)cc(OC)c1 | 2.3 | 0.89 | 0.72 | 3.47 | 14.6 | Dose-dependent effect | Dose-dependent effect | Dose-dependent effect | Active | Dose-dependent effect | Active
CN1C/C(=C\c2ccc(Br)cc2)C(=O)/C(=C/c2ccc(C#N)cc2)C1 | 5.9 | 4.84 | 4.4 | 7.42 | 10.5 |  |  |  |  |  | 
CN1C/C(=C\c2ccc(C#N)cc2)C(=O)/C(=C/c2ccccc2F)C1 | 1.34 | 0.59 | 0.81 | 2.67 | 11 |  |  |  |  |  | 
